Measurements: PMC9290002, “Development of Urea-Bond-Containing Michael Acceptors as Antitrypanosomal Agents Targeting Rhodesain” (ACS Medicinal Chemistry Letters, 2022)
Where two headings read alike, the source gives them in different places.

Legend:
[1] = target: human cathepsin L (hCatL) (Homo sapiens, UniProt P07711); test: Enzyme assay towards hCatL; assay type: biochemical
rhodesain [2] = target: T1, rhodesain (Trypanosoma brucei rhodesiense, UniProt Q95PM0); test: Rhodesain fluorogenic enzyme assay (Cbz-Phe-Arg-AMC); assay type: biochemical; conditions: for Ki: dissociation constant of noncovalent E·I complex, corrected to zero substrate concentration; for Rhodesain k2nd: k2nd = kinact/Ki
T1 sequence (Q95PM0 entry or part of it): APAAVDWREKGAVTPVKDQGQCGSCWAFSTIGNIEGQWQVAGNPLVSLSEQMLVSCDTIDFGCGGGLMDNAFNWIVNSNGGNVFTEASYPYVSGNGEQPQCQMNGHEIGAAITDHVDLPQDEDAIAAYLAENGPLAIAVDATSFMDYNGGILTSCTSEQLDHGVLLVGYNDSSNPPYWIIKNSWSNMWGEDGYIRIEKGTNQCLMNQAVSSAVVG

[3] = target: T2, main protease (Mpro) of SARS-CoV-2 (Severe acute respiratory syndrome coronavirus 2, UniProt P0DTD1); test: Enzyme assay towards SARS-CoV-2 Mpro, preliminary screening; assay type: biochemical; conditions: preliminary screening at 100 μM; read-out: SARS-CoV-2 Mpro percentage of inhibition
T2 construct: the main protease (M^pro) of SARS-CoV-2
Procedure: In light of this, dilution assays characterizing the mode of inhibition were not performed. Since poor inhibition was shown by the Phe-containing analogues, the Leu derivatives 25 and 26 were not tested against SARS-CoV-2 M^pro.
In all the manipulations regarding the biological evaluation, no unexpected or unusually high safety hazards […]
Enzyme assays towards rhodesain.
The biological activity against rhodesain was evaluated by fluorescence-based assays and all tested compounds were diluted in DMSO. Rhodesain was recombinantly expressed as previously reported2,3 and Cbz-Phe-Arg-AMC (10 µM) was used as the fluorogenic substrate. In the preliminary screening at 0.1 µM, the substrate hydrolysis was determined over a period of 10 min at rt and fluorescence intensity was measured every 30 seconds, whereas the kinetic parameters after the dilutions were determined over a period of 30 min. The assay buffer (pH 5.5) contains 50 mM of sodium acetate, 5 mM of EDTA, 200 mM of NaCl, and 0.005% of Brij 35. Enzyme buffer (pH 5.5) contains 5 mM of DTT and the same chemicals used for assay buffer, with exception of Brij 35. Each independent assay was carried-out twice in duplicate using 96-well-plates in a final volume of 200 µL. Infinity 200 PRO microplate (Tecan, Männedorf, Switzerland) was employed as the fluorescence reader, and a 380 nm excitation filter and a 460 nm emission filter were used.
The first-order inactivation rate costants (k obs) were determined analyzing the progress curves by nonlinear regression analysis using the equation 1 shown in the Chart S1. 4 The obtained k obs values were fitted against the inhibito concentrations to the hyperbolic equation 2, providing the k inact and K iapp values. The latter were corrected to zero substrate concentration by the term (1+[S]/K m) in equation 3. The K m value used to correct K iapp values was determined to 0.9 μM. 5 K i and k inac values were calculated by nonlinear regression analyses using GraFit.6 The second-order rate constants k 2nd = k inact/K i were easily determined from the […]
Chart S1. Equations 1, 2, and 3.
Enzyme assays towards hCatL.
The biological evaluation towards hCatL was performed following the procedure reported in the literature.7 Enzyme assays towards SARS-CoV-2 Mpro.
The biological activity of novel Michael acceptors 1-9 against SARS-CoV-2 M pro was carried-out following the previously described protocol.8
Antitrypanosomal activity.
(1 picture or pasted object on this page, not shown here)

T. b. brucei [4] = test: Antitrypanosomal activity against cultured T. b. brucei (ATPlite assay); assay type: cell-based; conditions: Trypanosoma brucei, 24 h
Procedure: All the urea derivatives were tested against cultured T. b. brucei, which expresses rhodesain similarly to T. b. rhodesiense. […] The difference in terms of rhodesain inhibition and antitrypanosomal activity observed for 1 could be due to its poor cell membrane permeability. In fact, we assume that the presence of substituents on the phenyl ring at the P3 position, as well as the extension of the aromatic region, could influence the crossing of cell membranes.
EC50 values for the antitrypanosomal activity were determined using the ATPlite assay as previously

rhodesain [5] = target: T1, rhodesain; conditions: cited from earlier work; for RD, k2nd: Figure 1
T. b. brucei [6] = test system: T. b. brucei; set-up: method as in PMID 31714776, PMID 28763614; conditions: Figure 1; cited from earlier work
BSF of T.b. = test system: BSF of T.b.; set-up: method as in PMID 19620707; conditions: bloodstream form; Figure 1; cited from earlier work

human cathepsin L (hCatL), sequence (P07711 114-333): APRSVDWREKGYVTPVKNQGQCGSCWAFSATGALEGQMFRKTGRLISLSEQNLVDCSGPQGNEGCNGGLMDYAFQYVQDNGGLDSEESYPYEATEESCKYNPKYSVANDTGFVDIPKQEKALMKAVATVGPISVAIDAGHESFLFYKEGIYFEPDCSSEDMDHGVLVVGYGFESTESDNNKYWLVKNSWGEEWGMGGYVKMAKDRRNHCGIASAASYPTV

SMILES: CC(=O)/C=C/[C@H](CCc1ccccc1)NC(=O)[C@H](Cc1ccccc1)NC(=O)Nc1ccc(C)cc1 [compound 3, (S)-N-((S,E)-6-Oxo-1-phenylhept-4-en-3-yl)-3-phenyl-2-(3-(p-tolyl)ureido)propanamide]
- Ki [1]: 1.32 ± 0.25 nM
- hCatL k2nd [1]: 360 ± 106 x 103M-1 min-1
- kinact [1]: 7.5e-06 s⁻¹
- Ki (rhodesain [2]): 0.51 ± 0.38 nM
- inhibition at 100 µM [3]: 33 to 66%
- EC50 (T. b. brucei [4]): 1390 ± 230 nM

SMILES: CC(=O)/C=C/[C@H](CCc1ccccc1)NC(=O)[C@H](Cc1ccccc1)NC(=O)Nc1ccc(Cl)cc1C(F)(F)F [compound 8, (S)-2-(3-(4-Chloro-2-(trifluoromethyl)phenyl)ureido)-N-((S,E)-6-oxo-1-phenylhept-4-en-3-yl)-3-phenylpropanamide]
- Ki [1]: 2.27 ± 0.43 nM
- hCatL k2nd [1]: 256 ± 71 x 103M-1 min-1
- kinact [1]: 9.17e-06 s⁻¹
- Ki (rhodesain [2]): 1.04 ± 0.31 nM
- Rhodesain k2nd (rhodesain [2]): 6050 ± 790 ×10^3 M^–1 min^–1
- inhibition at 100 µM [3]: 33 to 66%
- EC50 (T. b. brucei [4]): 1280 ± 40 nM

SMILES: CC(=O)/C=C/[C@H](CCc1ccccc1)NC(=O)[C@H](Cc1ccccc1)NC(=O)Nc1c(F)cccc1F [compound 5, (S)-2-(3-(2,6-Difluorophenyl)ureido)-N-((S,E)-6-oxo-1-phenylhept-4-en-3-yl)-3-phenylpropanamide]
- Ki [1]: 2.14 ± 0.25 nM
- hCatL k2nd [1]: 326 ± 8 x 103M-1 min-1
- kinact [1]: 1.17e-05 s⁻¹
- Ki (rhodesain [2]): 1.13 ± 0.26 nM
- Rhodesain k2nd (rhodesain [2]): 2030 ± 230 ×10^3 M^–1 min^–1
- inhibition at 100 µM [3]: 33 to 66%
- EC50 (T. b. brucei [4]): 3200 ± 280 nM

SMILES: CC(=O)/C=C/[C@H](CCc1ccccc1)NC(=O)[C@H](Cc1ccccc1)NC(=O)Nc1ccc(F)cc1 [compound 4, (S)-2-(3-(4-Fluorophenyl)ureido)-N-((S,E)-6-oxo-1-phenylhept-4-en-3-yl)-3-phenylpropanamide]
- Ki [1]: 0.1 ± 0.01 nM
- hCatL k2nd [1]: 5880 ± 120 x 103M-1 min-1
- kinact [1]: 1e-05 s⁻¹
- Ki (rhodesain [2]): 0.85 ± 0.07 nM
- Rhodesain k2nd (rhodesain [2]): 2480 ± 50 ×10^3 M^–1 min^–1
- inhibition at 100 µM [3]: 33 to 66%
- EC50 (T. b. brucei [4]): 1510 ± 80 nM

SMILES: CC(=O)/C=C/[C@H](CCc1ccccc1)NC(=O)[C@H](Cc1ccccc1)NC(=O)c1ccc(F)cc1 [PS-1]
- RD, k2nd (rhodesain [5]): 8.81e+08 M⁻¹ min⁻¹
- EC50 (T. b. brucei [6]): 3.6 µM

SMILES: CC(=O)/C=C/[C@H](CCc1ccccc1)NC(=O)[C@H](Cc1ccccc1)NC(=O)Nc1ccc(Cl)cc1C [compound 7, (S)-2-(3-(4-Chloro-2-methylphenyl)ureido)-N-((S,E)-6-oxo-1-phenylhept-4-en-3-yl)-3-phenylpropanamide]
- Ki [1]: 0.18 ± 0.03 nM
- hCatL k2nd [1]: 3110 ± 160 x 103M-1 min-1
- kinact [1]: 9.17e-06 s⁻¹
- Ki (rhodesain [2]): 0.51 ± 0.36 nM
- inhibition at 100 µM [3]: 33 to 66%
- EC50 (T. b. brucei [4]): 1650 ± 70 nM

SMILES: COc1ccc(NC(=O)N[C@@H](Cc2ccccc2)C(=O)N[C@H](/C=C/C(C)=O)CCc2ccccc2)cc1 [compound 2, (S)-2-(3-(4-Methoxyphenyl)ureido)-N-((S,E)-6-oxo-1-phenylhept-4-en-3-yl)-3-phenylpropanamide]
- Ki [1]: 81.9 ± 1.06 nM
- hCatL k2nd [1]: 9 ± 1 x 103M-1 min-1
- kinact [1]: 1.33e-05 s⁻¹
- Ki (rhodesain [2]): 1.05 ± 0.33 nM
- Rhodesain k2nd (rhodesain [2]): 5820 ± 490 ×10^3 M^–1 min^–1
- inhibition at 100 µM [3]: 33 to 66%
- EC50 (T. b. brucei [4]): 2080 ± 220 nM

SMILES: CC(=O)/C=C/[C@H](CCc1ccccc1)NC(=O)[C@H](Cc1ccccc1)NC(=O)OCc1ccccc1 [RK-52]
- RD, k2nd (rhodesain [5]): 6.7e+07 M⁻¹ min⁻¹
- EC50 (T. b. brucei [6]): 2.97 µM

SMILES: CC(=O)/C=C/[C@H](CCc1ccccc1)NC(=O)[C@H](Cc1ccccc1)NC(=O)Nc1cccc2ccccc12 [compound 9, (S)-2-(3-(Naphthalen-1-yl)ureido)-N-((S,E)-6-oxo-1-phenylhept-4-en-3-yl)-3-phenylpropanamide]
- Ki [1]: 0.051 ± 0.001 nM
- hCatL k2nd [1]: 12820 ± 1050 x 103M-1 min-1
- kinact [1]: 1.08e-05 s⁻¹
- Ki (rhodesain [2]): 2.51 ± 1.51 nM
- Rhodesain k2nd (rhodesain [2]): 4170 ± 1360 ×10^3 M^–1 min^–1
- inhibition at 100 µM [3]: 33 to 66%
- EC50 (T. b. brucei [4]): 2280 ± 270 nM

SMILES: CC(=O)/C=C/[C@H](CCc1ccccc1)NC(=O)[C@H](CC(C)C)NC(=O)Nc1ccc(C)cc1 [compound 25, (S)-4-Methyl-N-((S,E)-6-oxo-1-phenylhept-4-en-3-yl)-2-(3-(p-tolyl)ureido)pentanamide]
- Ki [1]: 0.64 ± 0.02 nM
- hCatL k2nd [1]: 2120 ± 6 x 103M-1 min-1
- kinact [1]: 2.25e-05 s⁻¹
- Ki (rhodesain [2]): 0.42 ± 0.08 nM
- EC50 (T. b. brucei [4]): 1540 ± 90 nM

SMILES: CC(=O)/C=C/[C@H](CCc1ccccc1)NC(=O)[C@H](Cc1ccccc1)NC(=O)Nc1ccc(Cl)cc1 [compound 6, (S)-2-(3-(4-Chlorophenyl)ureido)-N-((S,E)-6-oxo-1-phenylhept-4-en-3-yl)-3-Phenylpropanamide]
- Ki [1]: 3.11 ± 1.63 nM
- hCatL k2nd [1]: 321 ± 152 x 103M-1 min-1
- kinact [1]: 1.25e-05 s⁻¹
- Ki (rhodesain [2]): 0.78 ± 0.13 nM
- Rhodesain k2nd (rhodesain [2]): 2990 ± 300 ×10^3 M^–1 min^–1
- inhibition at 100 µM [3]: 33 to 66%
- EC50 (T. b. brucei [4]): 1500 ± 240 nM

SMILES: CC(C)C[C@H](NC(=O)[C@H]1O[C@@H]1C(=O)O)C(=O)NCCCCN=C(N)N [E64]
- Ki (rhodesain [5]): 35 ± 5 nM
- Rhodesain k2nd (rhodesain [5]): 261 ± 27 ×10^3 M^–1 min^–1
- Rhodesain kinact (rhodesain [5]): 0.0090 ± 0.0004 min^–1

SMILES: CC(=O)/C=C/[C@H](CCc1ccccc1)NC(=O)[C@H](Cc1ccccc1)NC(=O)Nc1ccccc1 [compound 1, (S)-N-((S,E)-6-Oxo-1-phenylhept-4-en-3-yl)-3-phenyl-2-(3-phenylureido)propenamide]
- Ki [1]: 0.11 ± 0.01 nM
- hCatL k2nd [1]: 5920 ± 150 x 103M-1 min-1
- kinact [1]: 1e-05 s⁻¹
- Ki (rhodesain [2]): 0.15 ± 0.06 nM
- inhibition at 100 µM [3]: 33 to 66%
- EC50 (T. b. brucei [4]): 19800 ± 2670 nM

SMILES: CN1CCN(C(=O)N[C@@H](Cc2ccccc2)C(=O)N[C@H](/C=C/S(=O)(=O)c2ccccc2)CCc2ccccc2)CC1 [K11777]
- RD, k2nd (rhodesain [5]): 9e+06 M⁻¹ min⁻¹
- Rhodesain k2nd (rhodesain [5]): 9000 ×10^3 M^–1 min^–1
- BSF of T.b., ED50 (BSF of T.b.): 0.9 µM

SMILES: CC(=O)/C=C/[C@H](CCc1ccccc1)NC(=O)[C@H](CC(C)C)NC(=O)Nc1ccc(Cl)cc1C [compound 26, (S)-2-(3-(4-chloro-2-methylphenyl)ureido)-4-methyl-N-((S,E)-6-oxo-1-phenylhept-4-en-3-yl)pentanamide]
- Ki [1]: 0.07 ± 0.03 nM
- hCatL k2nd [1]: 14240 ± 5410 x 103M-1 min-1
- kinact [1]: 1.42e-05 s⁻¹
- Ki (rhodesain [2]): 0.93 ± 0.52 nM
- EC50 (T. b. brucei [4]): 1120 ± 50 nM
